We go through eight compounds from PubChem BioAssay (NCI).

Among the test systems are HOP-62 NSCLC; HT29 colon; IGROV1 ovarian; KM12 colon; NCI-H226 lung; NCI/ADR-RES ovarian; SR leukemia; TK-10 renal; UACC-62 melanoma; UO-31 renal.
Holding throughout (experiment): NCI-60 cell line screen, 48 h

“And” between values parts separate entries of the source, which are not always exact repeats. Equal values may be shown once.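 Results reflect a 48-hour exposure of cells in 96-well plates to compound at five concentrations. GI50 = concentration required for 50% inhibition of growth. Definition used: TGI = concentration required for complete inhibition of growth.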 Where only a bound is given, the exact number is not on record here.

Take `O=C(c1ccco1)c1c(C(F)(F)F)n([O-])c2ccc(C(F)(F)F)cc2[n+]1=O`: the GI50 with HOP-62 NSCLC is 1470 nM; in the assay with HT29 colon, 243 nM; with IGROV1 ovarian it was 368 nM; in the assay on KM12 colon it was 467 nM; with NCI-H226 lung it was 657 nM; in the assay with NCI/ADR-RES ovarian, 257 nM. Besides, the GI50 was 127 nM with SR leukemia, 926 nM in the assay on TK-10 renal, 1110 nM with UACC-62 melanoma and 205 nM with UO-31 renal. The TGI is 2950 nM in the assay with HOP-62 NSCLC; 674 nM in the assay with HT29 colon; 1480 nM in the assay on IGROV1 ovarian; 973 nM with KM12 colon; 1550 nM in the assay with NCI-H226 lung; 939 nM with NCI/ADR-RES ovarian. Further, the TGI worked out at 408 nM with SR leukemia, 2300 nM in the assay on TK-10 renal, 2320 nM with UACC-62 melanoma and 439 nM with UO-31 renal.

Consider `CO[C@H]1Nc2c(ccc(C)c2O)C(=O)N2C=C(/C=C/C(N)=O)C[C@@H]12`, for which the TGI in the assay on HOP-62 NSCLC is 38.6 nM; in the assay with HT29 colon, 1510 nM; in the assay with IGROV1 ovarian it was 7330 nM; in the assay with KM12 colon, 7200 nM; with NCI-H226 lung, 470 nM; in the assay with NCI/ADR-RES ovarian, 85 nM. Also, the TGI in the assay on SR leukemia was greater than 100000 nM; with TK-10 renal, 7950 nM; in the assay with UACC-62 melanoma, 36 nM; in the assay on UO-31 renal, 45.1 nM.

Turning to `CC(C)c1[nH]nc2c1N=C(c1ccccc1Cl)c1cc([N+](=O)[O-])ccc1N2`, the GI50 was 6580 nM in the assay on HOP-62 NSCLC; 8720 nM in the assay with HT29 colon; 9460 nM in the assay on IGROV1 ovarian; 1790 nM with KM12 colon; 5090 nM in the assay on NCI-H226 lung; 6370 nM in the assay on NCI/ADR-RES ovarian. Moreover, the GI50 is 1510 nM in the assay on SR leukemia, 7310 nM in the assay on TK-10 renal, 4180 nM with UACC-62 melanoma and 5460 nM with UO-31 renal. For the same compound, the TGI in the assay with HOP-62 NSCLC was greater than 25000 nM; in the assay with HT29 colon it was greater than 22200 nM; in the assay on IGROV1 ovarian, 24400 nM; with KM12 colon it was 6310 nM; in the assay on NCI-H226 lung, 16100 nM; with NCI/ADR-RES ovarian, greater than 25000 nM. Further, the TGI in the assay on SR leukemia is 10000 nM; in the assay on TK-10 renal it was greater than 23100 nM; in the assay with UACC-62 melanoma, greater than 23500 nM; in the assay with UO-31 renal, greater than 18500 nM.

For the compound `COc1cc2c(Nc3cc(Cl)c(OC)c(Cl)c3)c(C#N)cnc2cc1OCCCN1CCN(C)CC1`, the GI50 was 3390 nM in the assay with HOP-62 NSCLC; 927 nM in the assay on HT29 colon; 189 nM in the assay on IGROV1 ovarian; 2190 nM with KM12 colon; 3390 nM with NCI-H226 lung; 2460 nM with NCI/ADR-RES ovarian. Further, the GI50 in the assay with SR leukemia was 1530 nM; in the assay with TK-10 renal, 253 nM; with UACC-62 melanoma it was 2730 nM; in the assay on UO-31 renal, 641 nM. The TGI stood at 12100 nM with HOP-62 NSCLC; 3250 nM in the assay with HT29 colon; 12000 nM in the assay with IGROV1 ovarian; 10100 nM in the assay with KM12 colon; 18200 nM in the assay with NCI-H226 lung; 9550 nM in the assay with NCI/ADR-RES ovarian. The TGI in the assay with SR leukemia amounted to 4410 nM; in the assay on TK-10 renal it was 2430 nM; with UACC-62 melanoma it was 7900 nM; in the assay with UO-31 renal, 5470 nM.

For the compound `COc1ccc(-c2ccc3c(N4CCOC[C@@H]4C)nc(N4CCOC[C@@H]4C)nc3n2)cc1CO`, the GI50 in the assay with HOP-62 NSCLC is 5.14 nM and 28 nM; in the assay with HT29 colon, 6.74 nM and 38.5 nM; in the assay on IGROV1 ovarian it was 6.54 nM and < 10 nM; in the assay on KM12 colon it was 6.26 nM and 44.9 nM; in the assay with NCI-H226 lung, 4 nM and 13.9 nM; in the assay on NCI/ADR-RES ovarian, 13 nM and 58.4 nM. For the same compound, the GI50 was 5.29 nM and 27 nM in the assay on SR leukemia; 4.84 nM and 14.7 nM in the assay with TK-10 renal; 3.37 nM and 19 nM in the assay with UACC-62 melanoma; 3 nM and < 10 nM in the assay with UO-31 renal. The TGI is 1650 nM and 527 nM with HOP-62 NSCLC; > 10000 nM and 5900 nM in the assay with HT29 colon; 74.4 nM and 60.7 nM in the assay on IGROV1 ovarian; greater than 100000 nM in the assay with KM12 colon; 186 nM and 312 nM in the assay on NCI-H226 lung; greater than 100000 nM in the assay on SR leukemia. Besides, the TGI with TK-10 renal was 237 nM and 212 nM; in the assay on UO-31 renal, 75.8 nM and 80.6 nM.

For the compound `CCNC(=O)/C(=C/c1ccc(OC)cc1)c1cc(OC)c(OC)c(OC)c1`, the TGI was greater than 100000 nM in the assay with HOP-62 NSCLC; 65400 nM with HT29 colon; greater than 100000 nM in the assay on IGROV1 ovarian; greater than 100000 nM with KM12 colon; 88700 nM in the assay on NCI-H226 lung; greater than 28000 nM in the assay on NCI/ADR-RES ovarian. Moreover, the TGI with SR leukemia was greater than 100000 nM; in the assay with TK-10 renal, greater than 69700 nM; with UACC-62 melanoma, greater than 100000 nM; in the assay with UO-31 renal it was greater than 100000 nM.

`CCN(CC)CCCCCCNc1cccc2cc(Br)cnc12`: the GI50 with HOP-62 NSCLC was 10000 nM; in the assay with HT29 colon, 1880 nM; in the assay on IGROV1 ovarian, 3250 nM; with KM12 colon it was 3560 nM; in the assay with NCI-H226 lung, 11800 nM; in the assay on NCI/ADR-RES ovarian it was 4880 nM. The GI50 was 3040 nM in the assay with SR leukemia, 1810 nM in the assay with TK-10 renal, 2070 nM with UACC-62 melanoma and 3150 nM in the assay with UO-31 renal. Moreover, the TGI with HOP-62 NSCLC came to 23400 nM; with HT29 colon it was 4320 nM; with IGROV1 ovarian, 10900 nM; in the assay with KM12 colon, 14300 nM; in the assay with NCI-H226 lung, 27000 nM; in the assay on NCI/ADR-RES ovarian, 20300 nM. Further, the TGI with SR leukemia was found to be 12600 nM; in the assay with TK-10 renal, 3890 nM; in the assay on UACC-62 melanoma, 4700 nM; in the assay with UO-31 renal, 15000 nM.

As for `O=C(NCc1ccc(Cn2c(=O)sn(-c3ccccc3)c2=O)cc1)OCc1ccc2cccc(O)c2n1`, the GI50 in the assay on HOP-62 NSCLC was 1550 nM; with HT29 colon it was 556 nM; in the assay on IGROV1 ovarian, 596 nM; in the assay on KM12 colon it was 1540 nM; with NCI-H226 lung, 1270 nM; in the assay with NCI/ADR-RES ovarian it was 1700 nM. For the same compound, the GI50 in the assay on SR leukemia is 383 nM; in the assay with TK-10 renal, 571 nM; with UACC-62 melanoma, 1170 nM; with UO-31 renal, 571 nM. Further, the TGI with HOP-62 NSCLC is 3520 nM; in the assay on HT29 colon, 2080 nM; in the assay on IGROV1 ovarian, 1960 nM; in the assay on KM12 colon it was 3020 nM; in the assay with NCI-H226 lung, 2770 nM; with NCI/ADR-RES ovarian it was 8870 nM. Moreover, the TGI is greater than 100000 nM in the assay with SR leukemia, 1620 nM in the assay with TK-10 renal, 2440 nM in the assay with UACC-62 melanoma and 1920 nM in the assay on UO-31 renal.
